Assay results taken from US10603332B2, “Anti-obesity composition” (SUNSTAR INC., priority 2013, dated 2020).

System: preadipocyte 3T3-L1 cells
Test: Suppression of fat droplet accumulation in adipocytes (Oil Red O staining, OD 490 nm)
Assay type: cell-based, mouse
Conditions: for relative amount of fat accumulation in adipocytes: control = 100; for Relative amount of fat accumulation: 3T3-L1 adipocytes, samples added Day 0 to Day 7 or 8 at the concentrations of each (Comparative) Example, medium to which nothing was added regarded as 100; for amount of fat accumulation: control (Comparative Example 1b) = 100
Protocol: Because they are immortalized cells, they can be mass-produced as fibroblasts before induction of differentiation. […] The passage media used were passage medium A (DMEM (4.5 g/L Glu), (Sigma, glucose, […]), 10% BS (Gibco, 16170), and 1% antibiotic (Gibco, Antibiotic-Antimycotic, 15240-062)) and passage medium B (DMEM (4.5 g/L Glu), 10% FBS (Biowest, S1560), and 1% antibiotic). The differentiation-inducing medium used was prepared by adding a 10-μg/mL insulin solution (Wako, 093-06351), 0.25 μM Dexamethasone (Sigma, D4902), and 0.11-mg/mL 3-isobutyl-1-methylxanthine (Sigma, 15879) to passage medium B. The differentiation-promoting medium used was prepared by adding a 5-μg/mL insulin solution to passage medium B. The differentiation-inducing medium and the differentiation-promoting medium were prepared before use. The oleuropein used was an “oleuropein” reagent available from Sigma. In the experiment, the oleuropein was used in such an amount that the final concentration was 50 μM. The hydroxytyrosol used was a “hydroxytyrosol” reagent available from Sigma. In the experiment, the hydroxytyrosol was used in such an amount that the final concentration was 25 μM. The willow extract used was a water extract (dry powder) of young branches including sprouts of willow (a plant mixture containing at least one or more members selected from Salix daphnoides, Salix purpurea, Salix fragilis, and Salix alba). In the experiment, the extract was diluted with the medium so that the final concentrations were 2.5, 5, 12.5, 25, 50, 100, and 200 μg/mL. The sulforaphane used was a “sulforaphane” reagent available from Sigma. In the experiment, a 100-mM DMSO solution was prepared, and diluted with the medium. A 5-mM γ-orizanol solution was prepared, and diluted with the medium. […] Embryo mouse) was grown in passage medium A. […] Sumilon Celltight C-1) so that the concentration was 2.5×10^4 cells/well. The cells were cultured for 2 days at 37° C. in the presence of 5% CO2. Thereafter, the medium was replaced with passage medium B. After confluent growth, culture was continued for about 2 days in passage medium B, and the medium was replaced with the differentiation-inducing medium (Day 0). Within 48 hours after the differentiation of the cells was induced in the differentiation-inducing medium, the medium was replaced with the differentiation-promoting medium (Day 2). Each sample was continuously added from the time of the replacement of the differentiation-inducing medium (Day 0) to Day 7 or 8. Cold 10% formalin/PBS was prepared by adding 10% (v/v) formalin to PBS (phosphate buffered saline) and adjusting the pH to 7.4, and then stored at 4° C. In this experiment, a 10% neutral buffered formalin solution (Wako, 060-03845) was used. The stain solution used was a 0.5% Oil Red O/isopropanol solution. Oil Red O (Wako, 154-02072) was dissolved in isopropanol (Sigma) by shaking to prepare a saturated solution. The 0.5% Oil Red 0/isopropanol solution and distilled water were mixed at a ratio of 3:2 immediately before use (preparation before use). The 3T3-L1 cells in the well plate cultured to Day 7 or 8 by the above culture method were used. Cold 10% formalin/PBS (0.5 mL/well) was added to the well plate containing the medium, and allowed to stand at room temperature. After the medium was removed, cold 10% formalin/PBS (0.5 mL/well) was newly added, and allowed to stand at room temperature. After the formalin solution was removed, the well plate was washed 2 or 3 times with distilled water (1 mL/well) to completely remove the remaining […]. After the well plate was washed once with 60% isopropanol (0.5 mL/well), the filtered stain solution was added at 1 mL/well, and allowed to stand at room temperature. After staining, the well plate was washed once with 60% isopropanol (0.5 mL/well), and washed 2 or 3 times with distilled water (1 mL/well). […] The eluted isopropanol solution was measured by a microplate reader at OD 490 nm. […]

For `C/C=C1/[C@H](O[C@@H]2O[C@H](CO)[C@@H](O)[C@H](O)[C@H]2O)OC=C(C(=O)OC)[C@H]1CC(=O)OCCc1ccc(O)c(O)c1` [oleuropein], the “relative amount of fat accumulation in adipocytes” value (50 μM added alone) was “around 100”.
`C/C=C1/[C@H](O[C@@H]2O[C@H](CO)[C@@H](O)[C@H](O)[C@H]2O)OC=C(C(=O)OC)[C@H]1CC(=O)OCCc1ccc(O)c(O)c1` [1a, Oleuropein] was tested, and the “Relative amount of fat accumulation” value was 99.9.
In the case of γ-Orizanol [7b], the “Relative amount of fat accumulation” value is reported as 78.5.
For `C[S+]([O-])CCCCN=C=S` (stereo not shown) [5a, Sulforaphane], the “Relative amount of fat accumulation” value was 100.9.
With `OCCc1ccc(O)c(O)c1` [hydroxytyrosol] the “amount of fat accumulation” value (25 μM added alone) was “around 100” and the “fat accumulation-suppressing effect higher than that of the control” value (37.5 μM added alone) was “about 25%”.
For γ-Orizanol [Comparative Example 6a], the “Relative amount of fat accumulation” value was 51.4.
With `C[S+]([O-])CCCCN=C=S` (stereo not shown) [Comparative Example 4a, Sulforaphane] the “Relative amount of fat accumulation” value was 109.8.
In the case of `C[S+]([O-])CCCCN=C=S` (stereo not shown) [3a, Sulforaphane], the “Relative amount of fat accumulation” value is reported as 110.7.
With `C[S+]([O-])CCCCN=C=S` (stereo not shown) [6b, Sulforaphane] the “Relative amount of fat accumulation” value was 100.8.
With `C[S+]([O-])CCCCN=C=S` (stereo not shown) [sulforaphane] the “amount of fat accumulation” value (0.25 or 2.5 μM added alone) was “around 100” and the “relative amount of fat accumulation in adipocytes” value (0.5 to 1.25 μM added alone) was “around 100”.
For `OCCc1ccc(O)c(O)c1` [2b, Hydroxytyrosol], the “Relative amount of fat accumulation” value was 99.3.
γ-orizanol was tested, and the “fat accumulation-suppressing effect higher than that of the control” value (0.5 μM added alone) was “about 25%”.
`OCCc1ccc(O)c(O)c1` [3b, Hydroxytyrosol] was tested, and the “Relative amount of fat accumulation” value was 78.4.
With `C[S+]([O-])CCCCN=C=S` (stereo not shown) [5b, Sulforaphane] the “Relative amount of fat accumulation” value was 104.8.
